Reference: patent publication US20260193268A1, “TRICYCLIC PI3Ka INHIBITOR, PREPARATION METHOD THEREFOR, AND PHARMACEUTICAL USE THEREOF” (WIGEN BIOMEDICINE TECHNOLOGY (SHANGHAI) CO., LTD., priority 2022, published 2026)

How the values were obtained:
[1] = tested on: HCC1954 cells (with PI3Kα H1047R mutation); assay: In vitro inhibition of HCC1954 cell proliferation (CellTiter-Lumi); type: cell-based; settings: Homo sapiens, HCC1954, 144 h, HCC1954 cells, 144 h, CellTiter-Lumi; class symbols; read-out: Inhibitory activity against HCC1954 cells (IC50), class symbols
Protocol: Assay for In Vitro Inhibition of HCC1954 Cell Proliferation by Compounds of the Present Disclosure
The growth of the cells was evaluated, and the IC50 for the inhibition of cell growth by the compounds was calculated.

[2] = tested on: MCF-7 cells (with PI3Kα E545K mutation); assay: In vitro inhibition of MCF-7 cell proliferation (CellTiter-Lumi); type: cell-based; settings: Homo sapiens, MCF7, 144 h, class symbols, read-out: Inhibitory activity against MCF-7 cells (IC50), class symbols
Method in brief: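 Growth IC50 derived from ATP luminescence (CellTiter-Lumi) after 144 h exposure of MCF-7 cells carrying PI3Kα E545K, plated 2000 cells/well and dosed with serial dilutions one day after seeding.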

Structure (SMILES)	IC50 [1] [nM]	IC50 [2] [nM]
CC(C)C=C(C#N)C(=O)Nc1ccc(N2CC(N3CCN(c4ccc5c(c4)-c4nc(N6C(=O)OC[C@H]6C(F)F)cn4CCO5)CC3)C2)c(F)c1 [Compound 226]	< 50	< 50
N#CC(=CC1CC1)C(=O)Nc1ccc(N2CC(N3CCN(c4ccc5c(c4)-c4nc(N6C(=O)OC[C@H]6C(F)F)cn4CCO5)CC3)C2)c(F)c1 [Compound 227]	< 50	< 50
CC1(C=C(C#N)C(=O)Nc2ccc(N3CC(N4CCN(c5ccc6c(c5)-c5nc(N7C(=O)OC[C@H]7C(F)F)cn5CCO6)CC4)C3)c(F)c2)COC1 [Compound 233]	< 50	< 50
CNC1(C=C(C#N)C(=O)Nc2ccc(N3CC(N4CCN(c5ccc6c(c5)-c5nc(N7C(=O)OC[C@H]7C(F)F)cn5CCO6)CC4)C3)c(F)c2)CC1 [Compound 237]	< 50	< 50
CC(C)(C)C=C(C#N)C(=O)Nc1ccc(N2CC(N3CCN(c4ccc5c(c4)-c4nc(N6C(=O)OC[C@H]6C(F)F)cn4CCO5)CC3)C2)nc1 [Compound 241]	< 50	< 50
CC(C)(N)C=C(C#N)C(=O)Nc1ccc(N2CC(N3CCN(c4ccc5c(c4)-c4nc(N6C(=O)OC[C@H]6C(F)F)cn4CCO5)CC3)C2)nc1 [Compound 242]	< 50	< 50
CNC(C)(C)C=C(C#N)C(=O)Nc1ccc(N2CC(N3CCN(c4ccc5c(c4)-c4nc(N6C(=O)OC[C@H]6C(F)F)cn4CCO5)CC3)C2)nc1 [Compound 243]	< 50	< 50
N#CC(=CC1CC1)C(=O)Nc1ccc(N2CC(N3CCN(c4ccc5c(c4)-c4nc(N6C(=O)OC[C@H]6C(F)F)cn4CCO5)CC3)C2)nc1 [Compound 245]	< 50	< 50
CC(C)(C=C(C#N)C(=O)Nc1ccc(N2CC(N3CCN(c4ccc5c(c4)-c4nc(N6C(=O)OC[C@H]6C(F)F)cn4CCO5)CC3)C2)nc1)N1CC2(COC2)C1 [Compound 246]	< 50	< 50
CC(C)(O)C=C(C#N)C(=O)Nc1ccc(N2CC(N3CCN(c4ccc5c(c4)-c4nc(N6C(=O)OC[C@H]6C(F)F)cn4CCO5)CC3)C2)nc1 [Compound 248]	< 50	< 50
COCCNC(C)(C)C=C(C#N)C(=O)Nc1ccc(N2CC(N3CCN(c4ccc5c(c4)-c4nc(N6C(=O)OC[C@H]6C(F)F)cn4CCO5)CC3)C2)nc1 [Compound 250]	< 50	< 50
CC1(C=C(C#N)C(=O)Nc2ccc(N3CC(N4CCN(c5ccc6c(c5)-c5nc(N7C(=O)OC[C@H]7C(F)F)cn5CCO6)CC4)C3)nc2)COC1 [Compound 251]	< 50	< 50
N#CC(=CC1(N)CC1)C(=O)Nc1ccc(N2CC(N3CCN(c4ccc5c(c4)-c4nc(N6C(=O)OC[C@H]6C(F)F)cn4CCO5)CC3)C2)nc1 [Compound 253]	< 50	< 50
CNC1(C=C(C#N)C(=O)Nc2ccc(N3CC(N4CCN(c5ccc6c(c5)-c5nc(N7C(=O)OC[C@H]7C(F)F)cn5CCO6)CC4)C3)nc2)CC1 [Compound 255]	< 50	< 50
CC(C)(C)C=C(C#N)C(=O)Nc1cnc(N2CC(N3CCN(c4ccc5c(c4)-c4nc(N6C(=O)OC[C@H]6C(F)F)cn4CCO5)CC3)C2)nc1 [Compound 259]	< 50	< 50
CC(C)(N)C=C(C#N)C(=O)Nc1cnc(N2CC(N3CCN(c4ccc5c(c4)-c4nc(N6C(=O)OC[C@H]6C(F)F)cn4CCO5)CC3)C2)nc1 [Compound 260]	< 50	< 50
CNC(C)(C)C=C(C#N)C(=O)Nc1cnc(N2CC(N3CCN(c4ccc5c(c4)-c4nc(N6C(=O)OC[C@H]6C(F)F)cn4CCO5)CC3)C2)nc1 [Compound 261]	< 50	< 50
N#CC(=CC1CC1)C(=O)Nc1cnc(N2CC(N3CCN(c4ccc5c(c4)-c4nc(N6C(=O)OC[C@H]6C(F)F)cn4CCO5)CC3)C2)nc1 [Compound 263]	< 50	< 50
CC(C)(C=C(C#N)C(=O)Nc1cnc(N2CC(N3CCN(c4ccc5c(c4)-c4nc(N6C(=O)OC[C@H]6C(F)F)cn4CCO5)CC3)C2)nc1)N1CC2(COC2)C1 [Compound 264]	< 50	< 50
CC(C)(C=C(C#N)C(=O)Nc1cnc(N2CC(N3CCN(c4ccc5c(c4)-c4nc(N6C(=O)OC[C@H]6C(F)F)cn4CCO5)CC3)C2)nc1)N1CCC1 [Compound 265]	< 50	< 50
COC(C)(C)C=C(C#N)C(=O)Nc1cnc(N2CC(N3CCN(c4ccc5c(c4)-c4nc(N6C(=O)OC[C@H]6C(F)F)cn4CCO5)CC3)C2)nc1 [Compound 267]	< 50	< 50
CC1(C=C(C#N)C(=O)Nc2cnc(N3CC(N4CCN(c5ccc6c(c5)-c5nc(N7C(=O)OC[C@H]7C(F)F)cn5CCO6)CC4)C3)nc2)COC1 [Compound 269]	< 50	< 50

Further lines, results first:

IC50 [1] [nM]	IC50 [2] [nM]	Structure (SMILES)
< 50	< 50	CC(C)(N)C=C(C#N)C(=O)Nc1ccc(N2CC(N3CCN(c4ccc5c(c4)-c4nc(N6C(=O)OC[C@H]6C(F)F)cn4CCO5)CC3)C2)c(F)c1 [Compound 224]
< 50	< 50	CNC(C)(C)C=C(C#N)C(=O)Nc1ccc(N2CC(N3CCN(c4ccc5c(c4)-c4nc(N6C(=O)OC[C@H]6C(F)F)cn4CCO5)CC3)C2)c(F)c1 [Compound 225]
< 50	< 50	CC(C)(C=C(C#N)C(=O)Nc1ccc(N2CC(N3CCN(c4ccc5c(c4)-c4nc(N6C(=O)OC[C@H]6C(F)F)cn4CCO5)CC3)C2)c(F)c1)N1CC2(COC2)C1 [Compound 228]
< 50	< 50	CC(C)(C=C(C#N)C(=O)Nc1ccc(N2CC(N3CCN(c4ccc5c(c4)-c4nc(N6C(=O)OC[C@H]6C(F)F)cn4CCO5)CC3)C2)c(F)c1)N1CCC1 [Compound 229]
< 50	< 50	CC(C)(O)C=C(C#N)C(=O)Nc1ccc(N2CC(N3CCN(c4ccc5c(c4)-c4nc(N6C(=O)OC[C@H]6C(F)F)cn4CCO5)CC3)C2)c(F)c1 [Compound 230]
< 50	< 50	COC(C)(C)C=C(C#N)C(=O)Nc1ccc(N2CC(N3CCN(c4ccc5c(c4)-c4nc(N6C(=O)OC[C@H]6C(F)F)cn4CCO5)CC3)C2)c(F)c1 [Compound 231]
< 50	< 50	COCCNC(C)(C)C=C(C#N)C(=O)Nc1ccc(N2CC(N3CCN(c4ccc5c(c4)-c4nc(N6C(=O)OC[C@H]6C(F)F)cn4CCO5)CC3)C2)c(F)c1 [Compound 232]
< 50	< 50	N#CC(=CC1CCCN1)C(=O)Nc1ccc(N2CC(N3CCN(c4ccc5c(c4)-c4nc(N6C(=O)OC[C@H]6C(F)F)cn4CCO5)CC3)C2)c(F)c1 (stereo partly shown) [Compound 234]
< 50	< 50	N#CC(=CC1(N)CC1)C(=O)Nc1ccc(N2CC(N3CCN(c4ccc5c(c4)-c4nc(N6C(=O)OC[C@H]6C(F)F)cn4CCO5)CC3)C2)c(F)c1 [Compound 235]
< 50	< 50	CC=C(C#N)C(=O)Nc1ccc(N2CC(N3CCN(c4ccc5c(c4)-c4nc(N6C(=O)OC[C@H]6C(F)F)cn4CCO5)CC3)C2)c(F)c1 [Compound 236]
< 50	< 50	CN(C1COC1)C(C)(C)C=C(C#N)C(=O)Nc1ccc(N2CC(N3CCN(c4ccc5c(c4)-c4nc(N6C(=O)OC[C@H]6C(F)F)cn4CCO5)CC3)C2)nc1 [Compound 238]
< 50	< 50	CC(C)(C=C(C#N)C(=O)Nc1ccc(N2CC(N3CCN(c4ccc5c(c4)-c4nc(N6C(=O)OC[C@H]6C(F)F)cn4CCO5)CC3)C2)nc1)NC1COC1 [Compound 239]
< 50	< 50	CC(C)(C=C(C#N)C(=O)Nc1ccc(N2CC(N3CCN(c4ccc5c(c4)-c4nc(N6C(=O)OC[C@H]6C(F)F)cn4CCO5)CC3)C2)nc1)N1CCOCC1 [Compound 240]
< 50	< 50	CC(C)C=C(C#N)C(=O)Nc1ccc(N2CC(N3CCN(c4ccc5c(c4)-c4nc(N6C(=O)OC[C@H]6C(F)F)cn4CCO5)CC3)C2)nc1 [Compound 244]
< 50	< 50	CC(C)(C=C(C#N)C(=O)Nc1ccc(N2CC(N3CCN(c4ccc5c(c4)-c4nc(N6C(=O)OC[C@H]6C(F)F)cn4CCO5)CC3)C2)nc1)N1CCC1 [Compound 247]
< 50	< 50	COC(C)(C)C=C(C#N)C(=O)Nc1ccc(N2CC(N3CCN(c4ccc5c(c4)-c4nc(N6C(=O)OC[C@H]6C(F)F)cn4CCO5)CC3)C2)nc1 [Compound 249]
< 50	< 50	N#CC(=CC1CCCN1)C(=O)Nc1ccc(N2CC(N3CCN(c4ccc5c(c4)-c4nc(N6C(=O)OC[C@H]6C(F)F)cn4CCO5)CC3)C2)nc1 (stereo partly shown) [Compound 252]
< 50	< 50	CC=C(C#N)C(=O)Nc1ccc(N2CC(N3CCN(c4ccc5c(c4)-c4nc(N6C(=O)OC[C@H]6C(F)F)cn4CCO5)CC3)C2)nc1 [Compound 254]
< 50	< 50	CC(C)(C=C(C#N)C(=O)Nc1cnc(N2CC(N3CCN(c4ccc5c(c4)-c4nc(N6C(=O)OC[C@H]6C(F)F)cn4CCO5)CC3)C2)nc1)N1CCOCC1 [Compound 258]
< 50	< 50	CC(C)C=C(C#N)C(=O)Nc1cnc(N2CC(N3CCN(c4ccc5c(c4)-c4nc(N6C(=O)OC[C@H]6C(F)F)cn4CCO5)CC3)C2)nc1 [Compound 262]
< 50	< 50	CC(C)(O)C=C(C#N)C(=O)Nc1cnc(N2CC(N3CCN(c4ccc5c(c4)-c4nc(N6C(=O)OC[C@H]6C(F)F)cn4CCO5)CC3)C2)nc1 [Compound 266]
< 50	< 50	COCCNC(C)(C)C=C(C#N)C(=O)Nc1cnc(N2CC(N3CCN(c4ccc5c(c4)-c4nc(N6C(=O)OC[C@H]6C(F)F)cn4CCO5)CC3)C2)nc1 [Compound 268]
